The source of these data is patent publication US20230265151A1, “GIP/GLP1 CO-AGONIST COMPOUNDS” (priority 2020, published 2023).

Where two headings read alike, the source gives them in different places. *1 amine or outer side, *2 acyl side, *3 side chain or, on linkers, in order; H or OH if unused. Where a SMILES comes first, the peptide text is derived from it. Side-chain parts run from the residue outwards. [ ]: non-standard residue; d: D form. The star is where a group is joined. αMePhe(2-F) = C[C@](N)(Cc1ccccc1F)C(=O)O; γGlu = O=C(O)[C@H](CCC(=O)[*:2])N[*:1]; C14 diacid = O=C(O)CCCCCCCCCCCCC(=O)*; αMeY = C[C@](N)(Cc1ccc(O)cc1)C(=O)O; 4Pal = N[C@@H](Cc1ccncc1)C(=O)O; αMeL = CC(C)C[C@](C)(N)C(=O)O; Orn = NCCC[C@H](N)C(=O)O; AEEA = NCCOCCOCC(=O)O; Aib = CC(C)(N)C(=O)O

Common to all, as to type: cell-based
One experiment has as its target hGLP-1R (Homo sapiens, UniProt P43220). In words: Functional cAMP formation (HTRF) in HEK-293 clonal cells expressing hGLP-1R, 0.1% bovine casein, without or with 1.0% human serum albumin. Also on record: expressed in transfected cells. The conditions noted are these: for EC50: geometric mean; for Emax: percent of maximal response to GLP-1(7-36)NH2. Summed up:
(§1)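 Cells were stimulated with peptide for 30 min at 37° C, then intracellular cAMP was measured by competitive HTRF (665/620 nm ratio) and converted to nM using a cAMP standard curve. Relative EC50 and Emax came from four-parameter logistic fits of percent maximal response against peptide concentration.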
In general terms: Changes in cAMP serve as a functional read-out for many G protein-coupled receptors.

The next experiment addresses T1, hGCGR (Homo sapiens, UniProt P47871).
T1 construct: expressed in transfected cells
In words: Functional cAMP formation (HTRF) in HEK-293 clonal cells expressing hGCGR, 0.1% bovine casein, without or with 1.0% human serum albumin. The conditions noted are these: 37° C. A digest of the protocol:
as §1

For another experiment, the target named is T2, hGIPR (Homo sapiens, UniProt P48546).
T2 construct: expressed in transfected cells
T2 sequence (P48546 22-466): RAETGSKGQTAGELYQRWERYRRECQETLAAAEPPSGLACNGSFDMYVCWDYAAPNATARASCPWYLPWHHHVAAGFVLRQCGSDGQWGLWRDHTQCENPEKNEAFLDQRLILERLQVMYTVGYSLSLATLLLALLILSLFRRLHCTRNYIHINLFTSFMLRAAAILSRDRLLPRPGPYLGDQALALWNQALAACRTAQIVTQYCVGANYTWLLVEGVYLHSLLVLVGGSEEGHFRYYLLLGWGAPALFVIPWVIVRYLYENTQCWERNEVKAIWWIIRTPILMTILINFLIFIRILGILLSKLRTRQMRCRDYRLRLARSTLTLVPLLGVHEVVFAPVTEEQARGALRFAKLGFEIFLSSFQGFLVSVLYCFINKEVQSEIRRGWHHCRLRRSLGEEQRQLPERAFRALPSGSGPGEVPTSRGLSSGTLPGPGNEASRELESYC
In words: Functional cAMP formation (HTRF) in HEK-293 clonal cells expressing hGIPR, 0.1% bovine casein, without or with 1.0% human serum albumin. The conditions noted are these: for Emax: percent of maximal response to GIP(1-42)NH2; for EC50: cAMP, 0.1% bovine casein (no human serum albumin), geometric mean. Summed up: as §1

The mark [1] stands for this setting: cAMP, 37° C., 0.1% bovine casein (no human serum albumin), read-out: hGLP-1R EC50, nM (SEM, n).
Setting [2] is: cAMP, 0.1% bovine casein (no human serum albumin), geometric mean, read-out: hGCGR EC50, nM (SEM, n).
Setting [3] is: HEK293, cAMP, 37° C., 0.1% bovine casein, arithmetic mean, read-out: hGIPR Emax, % ± SEM.
[4] abbreviates: 37° C., read-out: hGIPR EC50, nM (SEM, n).

T1 sequence (P47871 26-477): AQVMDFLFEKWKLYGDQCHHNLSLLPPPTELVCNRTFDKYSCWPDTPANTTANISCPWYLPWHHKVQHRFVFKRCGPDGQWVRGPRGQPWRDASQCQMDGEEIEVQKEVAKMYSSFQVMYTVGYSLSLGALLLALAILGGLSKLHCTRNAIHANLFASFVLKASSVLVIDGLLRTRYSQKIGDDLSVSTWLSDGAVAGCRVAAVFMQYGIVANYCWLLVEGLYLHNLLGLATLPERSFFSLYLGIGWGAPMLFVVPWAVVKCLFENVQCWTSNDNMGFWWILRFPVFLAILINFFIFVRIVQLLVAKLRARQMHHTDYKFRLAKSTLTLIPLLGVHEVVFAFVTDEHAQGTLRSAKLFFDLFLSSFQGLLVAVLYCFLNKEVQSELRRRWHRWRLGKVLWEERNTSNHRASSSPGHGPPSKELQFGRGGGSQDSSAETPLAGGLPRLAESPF
Sequence of hGLP-1R (P43220 24-463): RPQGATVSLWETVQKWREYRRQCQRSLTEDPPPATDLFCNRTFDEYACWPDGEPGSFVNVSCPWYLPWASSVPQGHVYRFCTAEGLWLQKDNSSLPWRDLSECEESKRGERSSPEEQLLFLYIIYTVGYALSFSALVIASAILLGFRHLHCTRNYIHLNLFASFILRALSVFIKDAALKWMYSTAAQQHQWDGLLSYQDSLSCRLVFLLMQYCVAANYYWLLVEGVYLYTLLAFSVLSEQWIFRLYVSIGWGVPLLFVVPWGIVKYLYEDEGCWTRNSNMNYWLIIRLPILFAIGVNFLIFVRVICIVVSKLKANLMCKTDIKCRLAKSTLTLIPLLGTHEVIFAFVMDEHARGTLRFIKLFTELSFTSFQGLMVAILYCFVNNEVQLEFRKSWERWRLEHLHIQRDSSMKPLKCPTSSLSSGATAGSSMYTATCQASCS

The EC50 is the concentration at which the effect is half-maximal. By Emax is commonly meant the maximal effect, on the per cent scale that the assay sets. Consider `CC[C@H](C)[C@H](NC(=O)[C@H](CC(C)C)NC(=O)[C@](C)(Cc1ccc(O)cc1)NC(=O)[C@@H](CCC(=O)O)NC(=O)[C@@H](NC(=O)[C@H](Cc1ccccc1)NC(=O)[C@H](CCCCNC(=O)COCCOCCNC(=O)COCCOCCNC(=O)CC[C@H](NC(=O)CCCCCCCCCCCCC(=O)O)C(=O)O)NC(=O)C(C)(C)NC(=O)[C@H](CCC(N)=O)NC(=O)[C@H](C)NC(=O)[C@H](CCCCNC(=O)COCCOCCNC(=O)COCCOCCNC(=O)CC[C@H](NC(=O)CCCCCCCCCCCCC(=O)O)C(=O)O)NC(=O)[C@H](CCCN)NC(=O)[C@H](CC(=O)O)NC(=O)[C@H](CC(C)C)NC(=O)[C@](C)(CC(C)C)NC(=O)[C@@H](NC(=O)[C@H](CO)NC(=O)[C@H](Cc1ccc(OC)cc1)NC(=O)[C@H](CC(=O)O)NC(=O)[C@H](CO)NC(=O)[C@@H](NC(=O)[C@](C)(Cc1ccccc1F)NC(=O)[C@@H](NC(=O)CNC(=O)[C@H](CCC(=O)O)NC(=O)C(C)(C)NC(=O)[C@@H](N)Cc1ccc(O)cc1)[C@@H](C)O)[C@@H](C)O)[C@@H](C)CC)[C@@H](C)CC)C(=O)N[C@@H](CCC(=O)O)C(=O)NCC(=O)NCC(=O)N1CCC[C@H]1C(=O)N[C@@H](CO)C(=O)N[C@@H](CO)C(=O)NCC(=O)N[C@@H](C)C(=O)N1CCC[C@H]1C(=O)N1CCC[C@H]1C(=O)N1CCC[C@H]1C(=O)N[C@@H](CO)C(N)=O` [Example 259] (H-Y[Aib]EGT[αMePhe(2-F)]TSDY(Me)SI[αMeL]LD[Orn]K([AEEA-AEEA-γGlu-C14 diacid])AQ[Aib]K([AEEA-AEEA-γGlu-C14 diacid])FI[dE][αMeY]LIEGGPSSGAPPPS-NH2), for which the EC50 at hGLP-1R (0.1% bovine casein and 1.0% human serum albumin, 37° C., read-out: hGLP-1R EC50, nM (SEM, n)) is 28.9 nM; on hGLP-1R (setting [1]), 0.362 nM; on hGCGR (0.1% bovine casein and 1.0% human serum albumin, geometric mean, read-out: hGCGR EC50, nM (SEM, n)) it was > 9950 nM; on hGCGR (setting [2]) it was > 9950 nM; on hGIPR (setting [4]), 0.0198 nM. The Emax came out at 66.4% at hGIPR (HEK293, 0.1% bovine casein and 1.0% human serum albumin, 37° C., read-out: hGIPR Emax, % ± SEM); 111% at hGIPR (setting [3]).
`CC[C@H](C)[C@H](NC(=O)[C@H](CCCN)NC(=O)[C@H](CC(=O)O)NC(=O)[C@H](CC(C)C)NC(=O)[C@](C)(CC(C)C)NC(=O)[C@@H](NC(=O)C(C)(C)NC(=O)[C@@H](NC(=O)[C@H](CC(=O)O)NC(=O)[C@H](CO)NC(=O)[C@@H](NC(=O)[C@](C)(Cc1ccccc1F)NC(=O)[C@@H](NC(=O)CNC(=O)[C@H](CCC(=O)O)NC(=O)C(C)(C)NC(=O)[C@@H](N)Cc1ccc(O)cc1)[C@@H](C)O)[C@@H](C)O)C(C)C)[C@@H](C)CC)C(=O)N[C@@H](C)C(=O)N[C@@H](CCC(N)=O)C(=O)NC(C)(C)C(=O)N[C@@H](CCCCNC(=O)COCCOCCNC(=O)CC[C@H](NC(=O)CCCCCCCCCOc1ccc(C(=O)O)cc1)C(=O)O)C(=O)N[C@@H](Cc1ccccc1)C(=O)N[C@H](C(=O)N[C@H](CCC(=O)O)C(=O)N[C@@](C)(Cc1ccc(O)cc1)C(=O)N[C@@H](CC(C)C)C(=O)N[C@H](C(=O)N[C@@H](CCCCNC(=O)COCCOCCNC(=O)CC[C@H](NC(=O)CCCCCCCCCOc1ccc(C(=O)O)cc1)C(=O)O)C(=O)NCC(=O)NCC(=O)N1CCC[C@H]1C(=O)N[C@@H](CO)C(=O)N[C@@H](CO)C(=O)NCC(=O)N[C@@H](C)C(=O)N1CCC[C@H]1C(=O)N1CCC[C@H]1C(=O)N1CCC[C@H]1C(=O)N[C@@H](CO)C(N)=O)[C@@H](C)CC)[C@@H](C)CC` [Example 382]: the Emax on hGLP-1R (HEK293, read-out: hGLP-1R Emax, % ± SEM, cAMP, 37° C., 0.1% bovine casein and 1.0% human serum albumin) was 118%; at hGIPR (HEK293, read-out: hGIPR Emax, % ± SEM, cAMP, 37° C., 0.1% bovine casein and 1.0% human serum albumin), 87.2%; on hGIPR (HEK293, read-out: hGIPR Emax, % ± SEM, cAMP, 37° C., 0.1% bovine casein, arithmetic mean) it was 97.6%. The EC50 on hGLP-1R (hGLP-1R EC50, nM (SEM, n), cAMP, 37° C., 0.1% bovine casein (no human serum albumin)) is 0.619 nM; at hGCGR (hGCGR EC50, nM (SEM, n), cAMP, 0.1% bovine casein (no human serum albumin), geometric mean), > 9950 nM; on hGCGR (hGCGR EC50, nM (SEM, n), cAMP, 0.1% bovine casein and 1.0% human serum albumin, geometric mean (SEM, n)), > 9950 nM; at hGIPR (hGIPR EC50, nM (SEM, n), 37° C.) it was 0.0302 nM.
Consider `CC[C@H](C)[C@H](NC(=O)[C@H](CCCN)NC(=O)[C@H](CC(=O)O)NC(=O)[C@H](CC(C)C)NC(=O)[C@](C)(CC(C)C)NC(=O)[C@@H](NC(=O)C(C)(C)NC(=O)[C@H](Cc1ccncc1)NC(=O)[C@H](CC(=O)O)NC(=O)[C@H](CO)NC(=O)[C@@H](NC(=O)[C@](C)(Cc1ccccc1F)NC(=O)[C@@H](NC(=O)CNC(=O)[C@H](CCC(=O)O)NC(=O)C(C)(C)NC(=O)[C@@H](N)Cc1ccc(O)cc1)[C@@H](C)O)[C@@H](C)O)[C@@H](C)CC)C(=O)N[C@@H](C)C(=O)N[C@@H](CCC(N)=O)C(=O)NC(C)(C)C(=O)N[C@@H](CCCCNC(=O)COCCOCCNC(=O)CC[C@H](NC(=O)CCCCCCCCCCCCC(=O)O)C(=O)O)C(=O)N[C@@H](Cc1ccccc1)C(=O)N[C@H](C(=O)N[C@H](CCC(=O)O)C(=O)N[C@@](C)(Cc1ccc(O)cc1)C(=O)N[C@@H](CC(C)C)C(=O)N[C@H](C(=O)N[C@@H](CCC(=O)O)C(=O)NCC(=O)NCC(=O)N1CCC[C@H]1C(=O)N[C@@H](CO)C(=O)N[C@@H](CO)C(=O)NCC(=O)N[C@@H](C)C(=O)N1CCC[C@H]1C(=O)N1CCC[C@H]1C(=O)N1CCC[C@H]1C(=O)N[C@@H](CO)C(=O)N[C@@H](CCCCNC(=O)COCCOCCNC(=O)CC[C@H](NC(=O)CCCCCCCCCCCCC(=O)O)C(=O)O)C(N)=O)[C@@H](C)CC)[C@@H](C)CC` [Example 341] (H-Y[Aib]EGT[αMePhe(2-F)]TSD[4Pal][Aib]I[αMeL]LD[Orn]IAQ[Aib]K([AEEA-γGlu-C14 diacid])FI[dE][αMeY]LIEGGPSSGAPPPSK([AEEA-γGlu-C14 diacid])-NH2), for which the Emax at hGLP-1R (HEK293, cAMP, 37° C., 0.1% bovine casein and 1.0% human serum albumin, read-out: hGLP-1R Emax, % ± SEM) came out at 113%; at hGIPR (HEK293, cAMP, 37° C., 0.1% bovine casein and 1.0% human serum albumin, read-out: hGIPR Emax, % ± SEM) it was 83.6%; at hGIPR (setting [3]) it was 91.4%. In addition, the EC50 was 0.329 nM on hGLP-1R (setting [1]); > 9950 nM on hGCGR (setting [2]); > 9950 nM on hGCGR (cAMP, 0.1% bovine casein and 1.0% human serum albumin, geometric mean (SEM, n), read-out: hGCGR EC50, nM (SEM, n)); 0.0127 nM at hGIPR (setting [4]).
